According to ChEMBL document CHEMBL1201862, “PubChem BioAssay data set” (2004):
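These data come from cells grown in 96-well plates and exposed to compound for 48 hours at five concentrations. GI50 = concentration required for 50% inhibition of growth.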 Activity calls are given as the source filed them. Cut-off read from the data, not from the text of the source: active = GI50 up to about 1.1 µM and inactive = higher.

What was measured:
Assay in all cases: inhibition of tumour cell growth, NCI panel, 48 h
OVCAR-4 = tested on: OVCAR-4
786-0 = tested on: 786-0
SK-OV-3 = tested on: SK-OV-3
SK-MEL-28 = tested on: SK-MEL-28
A549 = tested on: A549
SNB-19 = tested on: SNB-19
SN12C = tested on: SN12C
HOP-62 = tested on: HOP-62
K562 = tested on: K562
MDA-MB-231 = tested on: MDA-MB-231
RPMI-8226 = tested on: RPMI-8226
PC-3 = tested on: PC-3
MDA-N = tested on: MDA-N
DU-145 = tested on: DU-145
U-251 = tested on: U-251
TK-10 = tested on: TK-10
OVCAR-8 = tested on: OVCAR-8
SNB-75 = tested on: SNB-75
NCI-H522 = tested on: NCI-H522
HCC 2998 = tested on: HCC 2998

Structure (SMILES)	GI50 (OVCAR-4)	GI50 (786-0)	GI50 (SK-OV-3)	GI50 (SK-MEL-28)	GI50 (A549)	GI50 (SNB-19)	GI50 (SN12C)	GI50 (HOP-62)	GI50 (K562)	GI50 (MDA-MB-231)	GI50 (RPMI-8226)	GI50 (PC-3)	GI50 (MDA-N)	GI50 (DU-145)	GI50 (U-251)	GI50 (TK-10)	GI50 (OVCAR-8)	GI50 (SNB-75)	GI50 (NCI-H522)	GI50 (HCC 2998)
CCN1C[C@]2(C)CC[C@H](OC)C34C5C[C@@H]6[C@@H](OC)C[C@@](OC)(C5[C@H]6OCc5ccccc5)C(C13)[C@H](OC(C)=O)[C@@H]42 (some centres undefined)	> 100 µM (inactive)	> 100 µM (inactive)	> 100 µM (inactive)	> 100 µM (inactive)	> 100 µM (inactive)	> 100 µM (inactive)	> 100 µM (inactive)	> 100 µM (inactive)	> 100 µM (inactive)	> 100 µM (inactive)	> 100 µM (inactive)	82.8 µM (inactive)	> 100 µM (inactive)	> 100 µM (inactive)	> 100 µM (inactive)	> 100 µM (inactive)	> 100 µM (inactive)	1.18 µM (inactive)		
CCOC(=O)c1c(N2CCCC2)ncn(-c2ccccc2)c1=S	> 100 µM (inactive)	> 100 µM (inactive)	> 100 µM (inactive)	> 100 µM (inactive)	> 100 µM (inactive)	> 100 µM (inactive)	> 100 µM (inactive)	> 100 µM (inactive)	> 100 µM (inactive)		> 100 µM (inactive)	> 100 µM (inactive)	> 100 µM (inactive)	> 100 µM (inactive)	> 100 µM (inactive)	> 100 µM (inactive)	> 100 µM (inactive)	> 100 µM (inactive)	> 100 µM (inactive)	> 100 µM (inactive)
COC(=O)C(=O)C(C(=O)C(=O)Nc1ccc(C)c(C)c1)c1nc2ccc([N+](=O)[O-])cc2nc1O (centres undefined)	> 100 µM (inactive)	> 100 µM (inactive)	> 100 µM (inactive)	> 100 µM (inactive)	> 100 µM (inactive)	18.5 µM (inactive)	> 100 µM (inactive)	> 100 µM (inactive)	> 100 µM (inactive)	> 100 µM (inactive)	> 100 µM (inactive)	> 100 µM (inactive)	> 100 µM (inactive)		> 100 µM (inactive)	> 100 µM (inactive)	> 100 µM (inactive)	> 100 µM (inactive)	48.4 µM (inactive)	> 100 µM (inactive)
O=C1/C(=C/c2cccs2)NC(=S)N1CN1CCCC(CO)C1 (centres undefined)	> 100 µM (inactive)	> 100 µM (inactive)	> 100 µM (inactive)	> 100 µM (inactive)	> 100 µM (inactive)	> 100 µM (inactive)	> 100 µM (inactive)	> 100 µM (inactive)	> 100 µM (inactive)	> 100 µM (inactive)	99.1 µM (inactive)	> 100 µM (inactive)	> 100 µM (inactive)	> 100 µM (inactive)	> 100 µM (inactive)	> 100 µM (inactive)	> 100 µM (inactive)	> 100 µM (inactive)		
CC1=C(CCC(C)CO)O[C@H]2C[C@H]3[C@@H]4CC[C@H]5C[C@@H](O)CC[C@]5(C)[C@H]4CC(=O)[C@]3(C)[C@@H]12 (some centres undefined)	25.2 µM (inactive)	20.7 µM (inactive)	0.442 µM (active)	22.1 µM (inactive)	13.8 µM (inactive)	22.3 µM (inactive)	18.9 µM (inactive)	9.27 µM (inactive)	10.4 µM (inactive)	18.1 µM (inactive)	2.4 µM (inactive)	5.08 µM (inactive)	15.6 µM (inactive)	20.6 µM (inactive)	18 µM (inactive)	19.8 µM (inactive)	11.7 µM (inactive)	20.6 µM (inactive)	9.62 µM (inactive)	
Nc1nc(SCC(=O)O)nc(O)c1N	50.9 µM (inactive)	41.6 µM (inactive)	> 100 µM (inactive)	> 100 µM (inactive)	> 100 µM (inactive)	> 100 µM (inactive)	13.3 µM (inactive)	> 100 µM (inactive)	13.6 µM (inactive)	> 100 µM (inactive)	32.7 µM (inactive)	> 100 µM (inactive)	33.2 µM (inactive)	> 100 µM (inactive)	> 100 µM (inactive)	> 100 µM (inactive)	78.5 µM (inactive)	50.2 µM (inactive)	> 100 µM (inactive)	
O=C1/C(=C/c2n[nH]cc2-c2ccc(Cl)cc2)C(=O)N(c2ccccc2)C1c1ccccc1 (centres undefined)	25.6 µM (inactive)	17.2 µM (inactive)	15.5 µM (inactive)	17.7 µM (inactive)	25 µM (inactive)	27.4 µM (inactive)	29.1 µM (inactive)	17.4 µM (inactive)	8.41 µM (inactive)	18.9 µM (inactive)	13.7 µM (inactive)	6.92 µM (inactive)	14 µM (inactive)	20.6 µM (inactive)	19.9 µM (inactive)	27.5 µM (inactive)			7.74 µM (inactive)	
CC[C@H](CO)Nc1nc(NCc2ccccc2)c2ncn(C(C)C)c2n1 [SELICICLIB]	35.2 µM (inactive)	23.3 µM (inactive)	86.3 µM (inactive)		13.6 µM (inactive)			24.6 µM (inactive)	53 µM (inactive)	39.7 µM (inactive)	24.2 µM (inactive)	19.9 µM (inactive)		16.9 µM (inactive)	53.8 µM (inactive)	64.1 µM (inactive)		11.3 µM (inactive)	16.4 µM (inactive)	32.2 µM (inactive)
CCN(CCCOc1ccccc1)CCN(CC)CCCOc1ccccc1	18.6 µM (inactive)	18.4 µM (inactive)		15.1 µM (inactive)	12.8 µM (inactive)	9.1 µM (inactive)	20 µM (inactive)	20.4 µM (inactive)	3.1 µM (inactive)	16.1 µM (inactive)	0.249 µM (active)	2.52 µM (inactive)		10.9 µM (inactive)	12.9 µM (inactive)	12.7 µM (inactive)	15.7 µM (inactive)	21.8 µM (inactive)	14.2 µM (inactive)	8.69 µM (inactive)
NC12c3c4cccc3Oc3cccc(c31)Oc1cccc(c12)O4	> 50 µM (inactive)	> 50 µM (inactive)	> 50 µM (inactive)	> 50 µM (inactive)	> 50 µM (inactive)	> 50 µM (inactive)	> 50 µM (inactive)	> 50 µM (inactive)	31 µM (inactive)	> 50 µM (inactive)	> 50 µM (inactive)	> 50 µM (inactive)	> 50 µM (inactive)	> 50 µM (inactive)	> 50 µM (inactive)		> 50 µM (inactive)	> 50 µM (inactive)	17.7 µM (inactive)	
COc1ccc(-c2c3c(n(C4OC(CO)C(O)C(O)C4O)c(=S)c2C#N)CCCC3)cc1 (centres undefined)	> 100 µM (inactive)	> 100 µM (inactive)	> 100 µM (inactive)		> 100 µM (inactive)		> 100 µM (inactive)	> 100 µM (inactive)		> 100 µM (inactive)		> 100 µM (inactive)	> 100 µM (inactive)			> 100 µM (inactive)	> 100 µM (inactive)	0.355 µM (active)		> 100 µM (inactive)
Oc1ccc2ccccc2c1/N=N/c1cc(Cl)ccc1Cl	13.9 µM (inactive)	9.14 µM (inactive)	10.8 µM (inactive)	> 50 µM (inactive)	17 µM (inactive)	15.8 µM (inactive)	13.3 µM (inactive)	10 µM (inactive)	20.7 µM (inactive)	11.8 µM (inactive)	> 50 µM (inactive)	43.5 µM (inactive)	27.5 µM (inactive)		9.16 µM (inactive)	16 µM (inactive)	10.4 µM (inactive)	11.3 µM (inactive)	17.1 µM (inactive)	
COc1cc2c(c(OC)c1OC)-c1ccc(SC)c(=O)cc1[C@@H](NC(=O)c1ccc(C#N)cc1)CC2	< 0.01 µM (active)	< 0.01 µM (active)	< 0.01 µM (active)	> 79.8 µM (inactive)	< 0.01 µM (active)	< 0.01 µM (active)	< 0.01 µM (active)	< 0.01 µM (active)	< 0.01 µM (active)		< 0.01 µM (active)				< 0.01 µM (active)	3.3 µM (inactive)	< 0.01 µM (active)	0.146 µM (active)	< 0.01 µM (active)	< 0.01 µM (active)
Ic1cc2c(cc1C1SCCCS1)OCO2	> 100 µM (inactive)	> 100 µM (inactive)	> 100 µM (inactive)	> 100 µM (inactive)	> 100 µM (inactive)	> 100 µM (inactive)	> 100 µM (inactive)	> 100 µM (inactive)	> 100 µM (inactive)		> 100 µM (inactive)				> 100 µM (inactive)	> 100 µM (inactive)	> 100 µM (inactive)	> 100 µM (inactive)	> 100 µM (inactive)	> 100 µM (inactive)
Cc1ccc(/C=N/n2c(=O)[nH]c3ccccc3c2=O)cc1		> 100 µM (inactive)	> 100 µM (inactive)	> 100 µM (inactive)	> 100 µM (inactive)	> 100 µM (inactive)	> 100 µM (inactive)	> 100 µM (inactive)	> 100 µM (inactive)	> 100 µM (inactive)	> 100 µM (inactive)	> 100 µM (inactive)	> 100 µM (inactive)	> 100 µM (inactive)	> 100 µM (inactive)	> 100 µM (inactive)				
CC(=O)OCCOCNC(=S)N/N=C/c1ccc2ccccc2n1	63 µM (inactive)	39.4 µM (inactive)	43.1 µM (inactive)	70.1 µM (inactive)	33 µM (inactive)	> 100 µM (inactive)	48 µM (inactive)	45.1 µM (inactive)	53.2 µM (inactive)		> 100 µM (inactive)				29.2 µM (inactive)	69 µM (inactive)	37.1 µM (inactive)	51.3 µM (inactive)	14.1 µM (inactive)	31.7 µM (inactive)
